This note sets out measurements from patent US6667337B2, “Combination therapy for cancer” (Cancer Research Technology Limited, priority 2000, dated 2003).

Data set [1] has as its system Murine mammary carcinoma MDAH-MCa-4 tumours. Put plainly: Antitumour activity (tumour growth delay, cures) against MDAH-MCa-4 tumour. It counts as in vivo, female C3H/HeN mice. Particulars: for Growth delay (days) Median: interim analysis. How it is done: (§1) Murine mammary carcinoma MDAH—MCa-4 tumours were grown in female C3H/HeN mice from stocks stored in liquid nitrogen at the sixth transplant generation, and were passaged and used for experiments at the eighth transplant generation. Tumours for experiments were grown by inoculating 20 μl of cell suspension (5 mg packed cells) intramuscularly in the right gastrocenmius muscle. Animals were randomised to treatment groups, and treated with drugs when the dliameter of the tumour-bearing leg reached 10-11 mm (ca 0.6 g tumour), approximately 18 days after inoculation. […] Both compounds were administered essentially at the same time (within 1 min). Host toxicity was assessed by determination of lethality, and by measurement of body weight 4-5 days after drug treatment. The diameter of the tumour-bearing leg was measured three times weekly until values exceeded 13 mm (ca 1.4 g tumour) at which time the animals were terminated. The growth curve for each individual tumour was plotted as in FIG. 1, and the time-to-endpoint (TTE, time from treatment to endpoint) was determined for each mouse. The median and mean TTE was determined for each treatment group. The mean tumour growth delay for each group was calculated as the difference between mean TTE for treated and control groups. The statistical significance of the antitumour effects was tested using ANOVA followed by Dunnett's test to determine p values for the significance of differences between individual groups.

Data set [2] in a line: Host toxicity (lethality, body weight 4-5 days after drug treatment). It counts as in vivo, female C3H/HeN mice. How it is done:
as §1

Setting [3] is: DMXAA 80 μmol/kg alone, group 120/B.
[4] abbreviates: paclitaxel 23.7 μmol/kg alone, group 120/C.

Take `Cc1ccc2c(=O)c3cccc(CC(=O)O)c3oc2c1C` [DMXAA, 5,6-dimethylxanthenone-4-acetic acid]: the “Growth delay (days) Median” value in data set [1] (setting [3]) was 17.9 days. Besides, the “% Body weight change (d4-5) Mean” value in data set [2] (setting [3]) was −6.0%.
On to `CC(=O)O[C@H]1C(=O)[C@@]2(C)[C@H]([C@H](OC(=O)c3ccccc3)[C@]3(O)C[C@H](OC(=O)[C@H](O)[C@@H](NC(=O)c4ccccc4)c4ccccc4)C(C)=C1C3(C)C)[C@]1(OC(C)=O)CO[C@@H]1C[C@@H]2O` [Paclitaxel, paclitaxel], for which, in data set [1] (setting [4]), the “Growth delay (days) Median” value turned out to be 3.5 days. For the same compound, in data set [1] (paclitaxel alone, up to 42 μmol/kg), the “antitumour activity (in words)” value was “little antitumour activity”. Moreover, in data set [2] (setting [4]), the “% Body weight change (d4-5) Mean” value is on record as −0.1%. For the same compound, the “Number of mice Deaths” value in data set [2] (paclitaxel 23.7 μmol/kg alone, group 120/C, 7 mice treated, interim analysis) is reported as 1. For the same compound, the “host toxicity (in words)” value in data set [2] (paclitaxel alone, 42 μmol/kg) was “not demonstrably toxic”.
